Experimental data taken from PMC12749626, “Expediting hit-to-lead progression in drug discovery through reaction prediction and multi-dimensional optimization” (Nature Communications, 2025).
Converted amounts (≈) assume the structure as drawn.

system: not listed separately; test: Solubility in 0.05M PO4-; format: physicochemical; details: not given

Structure (SMILES) | Solubility in 0.05M PO4- [µg/mL]
O=C(c1ccc2nc(-c3ccc(C4(C5CCC5)CC4)nc3)oc2c1)N1CCN(c2nc3ccccc3c(=O)[nH]2)CC1 [Compound 20] | < 0.05
O=C(c1ccc2nc(-c3cccnc3C3CCNCC3)oc2c1)N1CCN(c2nc3nc(Cl)ccc3o2)CC1.O=CO [Compound 26] | > 590

same assay, conditions: 0.05 M phosphate buffer, aqueous buffer

Structure (SMILES) | solubility [µg/mL]
O=C(c1ccc2nc(-c3cnccc3C3CCCC3)oc2c1)N1CCN(c2nc3ccccc3c(=O)[nH]2)CC1 [Compound 18] | < 0.05
O=C(c1ccc2nc(-c3cnc(C4CCCCC4)cc3C3CCCCC3)oc2c1)N1CCN(c2nc3ccccc3c(=O)[nH]2)CC1 [Compound 19] | < 1.1

Second part, the molecule after the results:

solubility [µg/mL] | Structure (SMILES)
< 0.05 | O=C(c1ccc2nc(-c3cccnc3C3CCCC3)oc2c1)N1CCN(c2nc3ccccc3c(=O)[nH]2)CC1 [Compound 21]
< 0.05 | O=C(c1ccc2nc(-c3ccc(C4CCCC4)nc3)oc2c1)N1CCN(c2nc3ccccc3c(=O)[nH]2)CC1 [Compound 22]
< 0.05 | O=C(c1ccc2nc(-c3cccnc3C3CCCC3)oc2c1)N1CCN(c2nc3nc(Cl)ccc3o2)CC1 [Compound 24]
84 | O=C(c1ccc2nc(-c3cnccc3C3CCNCC3)oc2c1)N1CCN(c2nc3nc(Cl)ccc3o2)CC1.O=CO [Compound 25]
< 0.05 | O=C(c1ccc2nc(-c3ccc(C4CCCC4)nc3)oc2c1)N1CC2(CC(n3cnc(C4CC4)n3)C2)C1 [Compound 30]

system: not listed separately; test: Solubility in FESSIF; format: physicochemical; details: not given

Structure (SMILES) | solubility [µg/mL]
O=C(c1ccc2nc(-c3cccnc3C3CCCC3)oc2c1)N1CCN(c2nc3nc(Cl)ccc3o2)CC1 [Compound 24] | 2.5 (≈ 4.73 µM)

biological target: T1, human MAGL (Homo sapiens, UniProt Q99685); test: not given; details: = pIC50 - cLogP
T1 sequence (Q99685 1-303): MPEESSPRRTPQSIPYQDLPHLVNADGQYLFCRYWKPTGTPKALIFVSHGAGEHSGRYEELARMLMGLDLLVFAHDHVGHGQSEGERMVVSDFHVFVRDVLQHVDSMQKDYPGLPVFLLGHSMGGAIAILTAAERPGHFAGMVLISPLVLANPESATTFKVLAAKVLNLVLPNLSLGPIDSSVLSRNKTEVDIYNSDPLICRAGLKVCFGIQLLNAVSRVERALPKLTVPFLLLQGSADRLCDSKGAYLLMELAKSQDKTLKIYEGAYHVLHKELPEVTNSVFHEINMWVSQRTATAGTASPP

Structure (SMILES) | Lipophilic efficiency (LipE)
O=C(c1ccc2nc(-c3ccc(C4(C5CCC5)CC4)nc3)oc2c1)N1CCN(c2nc3ccccc3c(=O)[nH]2)CC1 [Compound 20] | 2.84
O=C(c1ccc2nc(-c3cccnc3C3(C4CCC4)CC3)oc2c1)N1CCN(c2nc3nc(Cl)ccc3o2)CC1 [Compound 28] | 2.31

system: not listed separately; test: Hepatocyte clearance; details: cryopreserved hepatocytes of human origin, 1 µM compound

Structure (SMILES) | Hepatocyte clearance [µL/min/10^6 cells]
O=C(c1ccc2nc(-c3ccc(C4(C5CCC5)CC4)nc3)oc2c1)N1CCN(c2nc3ccccc3c(=O)[nH]2)CC1 [Compound 20] | 84.2

same assay, conditions: human, primary pooled cryopreserved hepatocytes in suspension

Structure (SMILES) | hepatocyte CLint at 1 µM [µL/min/1e6 cells]
O=C(c1ccc2nc(-c3cnc(C4CCCCC4)cc3C3CCCCC3)oc2c1)N1CCN(c2nc3ccccc3c(=O)[nH]2)CC1 [Compound 19] | 4.6
O=C(c1ccc2nc(-c3cccnc3C3CCCC3)oc2c1)N1CCN(c2nc3ccccc3c(=O)[nH]2)CC1 [Compound 21] | 47.7
O=C(c1ccc2nc(-c3ccc(C4CCCC4)nc3)oc2c1)N1CCN(c2nc3ccccc3c(=O)[nH]2)CC1 [Compound 22] | 104
O=C(c1ccc2nc(-c3cccnc3C3CCCC3)oc2c1)N1CCN(c2nc3nc(Cl)ccc3o2)CC1 [Compound 24] | 42.2
O=C(c1ccc2nc(-c3cnccc3C3CCNCC3)oc2c1)N1CCN(c2nc3nc(Cl)ccc3o2)CC1.O=CO [Compound 25] | 1
O=C(c1ccc2nc(-c3ccc(C4CCCC4)nc3)oc2c1)N1CC2(CC(n3cnc(C4CC4)n3)C2)C1 [Compound 30] | 187
O=C(c1ccc2nc(-c3cnccc3C3CCCC3)oc2c1)N1CC(N2CCN(C(=O)c3nccs3)CC2)C1 [Compound 31] | 163

system: not listed separately; test: Microsomal clearance, human microsomes; details: not given

Structure (SMILES) | microsomal CLint at 1 µM [µL/min/mg]
O=C(c1ccc2nc(-c3cnccc3C3CCCC3)oc2c1)N1CCN(c2nc3ccccc3c(=O)[nH]2)CC1 [Compound 18] | 853
O=C(c1ccc2nc(-c3cnc(C4CCCCC4)cc3C3CCCCC3)oc2c1)N1CCN(c2nc3ccccc3c(=O)[nH]2)CC1 [Compound 19] | 17

The next lines start with the values.

microsomal CLint at 1 µM [µL/min/mg] | Structure (SMILES)
53 | O=C(c1ccc2nc(-c3cccnc3C3CCCC3)oc2c1)N1CCN(c2nc3ccccc3c(=O)[nH]2)CC1 [Compound 21]
142 | O=C(c1ccc2nc(-c3ccc(C4CCCC4)nc3)oc2c1)N1CCN(c2nc3ccccc3c(=O)[nH]2)CC1 [Compound 22]
69 | O=C(c1ccc2nc(-c3cccnc3C3CCCC3)oc2c1)N1CCN(c2nc3nc(Cl)ccc3o2)CC1 [Compound 24]
10 | O=C(c1ccc2nc(-c3cnccc3C3CCNCC3)oc2c1)N1CCN(c2nc3nc(Cl)ccc3o2)CC1.O=CO [Compound 25]
563 | O=C(c1ccc2nc(-c3ccc(C4CCCC4)nc3)oc2c1)N1CC2(CC(n3cnc(C4CC4)n3)C2)C1 [Compound 30]
431 | O=C(c1ccc2nc(-c3cnccc3C3CCCC3)oc2c1)N1CC(N2CCN(C(=O)c3nccs3)CC2)C1 [Compound 31]

system: not listed separately; test: Microsomal clearance, mouse microsomes; details: not given

Structure (SMILES) | microsomal CLint at 1 µM [µL/min/mg]
O=C(c1ccc2nc(-c3cnc(C4CCCCC4)cc3C3CCCCC3)oc2c1)N1CCN(c2nc3ccccc3c(=O)[nH]2)CC1 [Compound 19] | 47
O=C(c1ccc2nc(-c3cccnc3C3CCCC3)oc2c1)N1CCN(c2nc3ccccc3c(=O)[nH]2)CC1 [Compound 21] | 114
O=C(c1ccc2nc(-c3cccnc3C3CCCC3)oc2c1)N1CCN(c2nc3nc(Cl)ccc3o2)CC1 [Compound 24] | 61
O=C(c1ccc2nc(-c3cnccc3C3CCNCC3)oc2c1)N1CCN(c2nc3nc(Cl)ccc3o2)CC1.O=CO [Compound 25] | 10

biological target: CYP2C9 (Homo sapiens, UniProt P11712); test: Cytochrome P450 inhibition assay, CYP2C9; details: liver microsomes
Sequence (P11712 whole entry): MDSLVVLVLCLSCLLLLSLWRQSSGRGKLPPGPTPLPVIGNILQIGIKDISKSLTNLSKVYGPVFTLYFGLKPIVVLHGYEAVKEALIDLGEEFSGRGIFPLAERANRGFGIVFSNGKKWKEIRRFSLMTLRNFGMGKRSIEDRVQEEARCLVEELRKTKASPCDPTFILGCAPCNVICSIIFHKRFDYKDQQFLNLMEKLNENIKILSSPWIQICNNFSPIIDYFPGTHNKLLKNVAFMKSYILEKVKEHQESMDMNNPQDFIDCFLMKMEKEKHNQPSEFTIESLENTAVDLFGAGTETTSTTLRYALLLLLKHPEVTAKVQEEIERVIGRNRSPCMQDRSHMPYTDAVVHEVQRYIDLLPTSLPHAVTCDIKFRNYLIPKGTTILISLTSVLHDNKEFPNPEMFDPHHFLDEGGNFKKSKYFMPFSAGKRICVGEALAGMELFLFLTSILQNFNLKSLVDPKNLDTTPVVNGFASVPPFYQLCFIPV

Structure (SMILES) | CYP2C9 Inhibition [%]
O=C(c1ccc2nc(-c3cnccc3C3CCCC3)oc2c1)N1CCN(c2nc3ccccc3c(=O)[nH]2)CC1 [Compound 18] | 62
O=C(c1ccc2nc(-c3cnc(C4CCCCC4)cc3C3CCCCC3)oc2c1)N1CCN(c2nc3ccccc3c(=O)[nH]2)CC1 [Compound 19] | 49
O=C(c1ccc2nc(-c3ccc(C4(C5CCC5)CC4)nc3)oc2c1)N1CCN(c2nc3ccccc3c(=O)[nH]2)CC1 [Compound 20] | 24
O=C(c1ccc2nc(-c3cccnc3C3CCNCC3)oc2c1)N1CCN(c2nc3nc(Cl)ccc3o2)CC1.O=CO [Compound 26] | -23

Next, values leading:

CYP2C9 Inhibition [%] | Structure (SMILES)
74 | O=C(c1ccc2nc(-c3cccnc3C3CCCC3)oc2c1)N1CCN(c2nc3ccccc3c(=O)[nH]2)CC1 [Compound 21]
23 | O=C(c1ccc2nc(-c3ccc(C4CCCC4)nc3)oc2c1)N1CCN(c2nc3ccccc3c(=O)[nH]2)CC1 [Compound 22]
45 | O=C(c1ccc2nc(-c3cccnc3C3CCCC3)oc2c1)N1CCN(c2nc3nc(Cl)ccc3o2)CC1 [Compound 24]
-5 | O=C(c1ccc2nc(-c3cnccc3C3CCNCC3)oc2c1)N1CCN(c2nc3nc(Cl)ccc3o2)CC1.O=CO [Compound 25]
-19 | O=C(c1ccc2nc(-c3ccc(C4CCCC4)nc3)oc2c1)N1CC2(CC(n3cnc(C4CC4)n3)C2)C1 [Compound 30]
43 | O=C(c1ccc2nc(-c3cnccc3C3CCCC3)oc2c1)N1CC(N2CCN(C(=O)c3nccs3)CC2)C1 [Compound 31]

biological target: CYP2D6 (Homo sapiens, UniProt P10635); test: Cytochrome P450 inhibition assay, CYP2D6; details: liver microsomes
Sequence (P10635 whole entry): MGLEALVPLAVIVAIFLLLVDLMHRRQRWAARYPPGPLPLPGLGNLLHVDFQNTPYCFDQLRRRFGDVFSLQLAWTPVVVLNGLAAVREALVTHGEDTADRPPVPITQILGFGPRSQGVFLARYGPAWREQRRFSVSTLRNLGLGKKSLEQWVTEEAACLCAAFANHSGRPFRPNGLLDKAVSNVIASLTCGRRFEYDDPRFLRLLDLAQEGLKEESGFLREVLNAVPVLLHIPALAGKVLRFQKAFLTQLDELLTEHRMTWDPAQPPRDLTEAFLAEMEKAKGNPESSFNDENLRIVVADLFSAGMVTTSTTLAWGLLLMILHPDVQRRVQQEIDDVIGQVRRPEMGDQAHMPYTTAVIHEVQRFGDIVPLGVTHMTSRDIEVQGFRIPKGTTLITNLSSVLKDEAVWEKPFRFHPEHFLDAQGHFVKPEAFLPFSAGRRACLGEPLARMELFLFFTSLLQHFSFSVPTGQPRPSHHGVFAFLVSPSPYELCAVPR

Structure (SMILES) | CYP2D6 Inhibition [%]
O=C(c1ccc2nc(-c3cnccc3C3CCCC3)oc2c1)N1CCN(c2nc3ccccc3c(=O)[nH]2)CC1 [Compound 18] | 45
O=C(c1ccc2nc(-c3cnc(C4CCCCC4)cc3C3CCCCC3)oc2c1)N1CCN(c2nc3ccccc3c(=O)[nH]2)CC1 [Compound 19] | 23
O=C(c1ccc2nc(-c3ccc(C4(C5CCC5)CC4)nc3)oc2c1)N1CCN(c2nc3ccccc3c(=O)[nH]2)CC1 [Compound 20] | 16
O=C(c1ccc2nc(-c3cccnc3C3CCNCC3)oc2c1)N1CCN(c2nc3nc(Cl)ccc3o2)CC1.O=CO [Compound 26] | 18

Further lines, results first:

CYP2D6 Inhibition [%] | Structure (SMILES)
41 | O=C(c1ccc2nc(-c3cccnc3C3CCCC3)oc2c1)N1CCN(c2nc3ccccc3c(=O)[nH]2)CC1 [Compound 21]
62 | O=C(c1ccc2nc(-c3ccc(C4CCCC4)nc3)oc2c1)N1CCN(c2nc3ccccc3c(=O)[nH]2)CC1 [Compound 22]
26 | O=C(c1ccc2nc(-c3cccnc3C3CCCC3)oc2c1)N1CCN(c2nc3nc(Cl)ccc3o2)CC1 [Compound 24]
34 | O=C(c1ccc2nc(-c3cnccc3C3CCNCC3)oc2c1)N1CCN(c2nc3nc(Cl)ccc3o2)CC1.O=CO [Compound 25]
3 | O=C(c1ccc2nc(-c3ccc(C4CCCC4)nc3)oc2c1)N1CC2(CC(n3cnc(C4CC4)n3)C2)C1 [Compound 30]
22 | O=C(c1ccc2nc(-c3cnccc3C3CCCC3)oc2c1)N1CC(N2CCN(C(=O)c3nccs3)CC2)C1 [Compound 31]

biological target: CYP3A4 (Homo sapiens, UniProt P08684); test: Cytochrome P450 inhibition assay, CYP3A4; details: liver microsomes
Sequence (P08684 whole entry): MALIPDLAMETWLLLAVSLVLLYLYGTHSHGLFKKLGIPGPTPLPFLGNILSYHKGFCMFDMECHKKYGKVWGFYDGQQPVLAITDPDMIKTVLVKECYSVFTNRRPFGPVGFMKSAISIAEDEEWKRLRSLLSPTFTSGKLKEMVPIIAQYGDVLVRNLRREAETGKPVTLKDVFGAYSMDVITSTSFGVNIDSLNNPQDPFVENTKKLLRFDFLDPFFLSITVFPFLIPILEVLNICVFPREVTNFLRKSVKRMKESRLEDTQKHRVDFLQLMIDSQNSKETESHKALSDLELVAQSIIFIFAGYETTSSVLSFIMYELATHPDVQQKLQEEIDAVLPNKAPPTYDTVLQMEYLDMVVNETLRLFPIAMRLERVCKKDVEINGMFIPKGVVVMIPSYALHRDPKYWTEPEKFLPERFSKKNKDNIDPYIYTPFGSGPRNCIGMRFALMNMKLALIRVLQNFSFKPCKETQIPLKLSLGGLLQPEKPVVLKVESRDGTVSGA

Structure (SMILES) | CYP3A4 Inhibition [%]
O=C(c1ccc2nc(-c3cnccc3C3CCCC3)oc2c1)N1CCN(c2nc3ccccc3c(=O)[nH]2)CC1 [Compound 18] | > 90
O=C(c1ccc2nc(-c3cnc(C4CCCCC4)cc3C3CCCCC3)oc2c1)N1CCN(c2nc3ccccc3c(=O)[nH]2)CC1 [Compound 19] | 44
O=C(c1ccc2nc(-c3ccc(C4(C5CCC5)CC4)nc3)oc2c1)N1CCN(c2nc3ccccc3c(=O)[nH]2)CC1 [Compound 20] | 49
O=C(c1ccc2nc(-c3cccnc3C3CCNCC3)oc2c1)N1CCN(c2nc3nc(Cl)ccc3o2)CC1.O=CO [Compound 26] | 12

Other lines, results leading:

CYP3A4 Inhibition [%] | Structure (SMILES)
4 | O=C(c1ccc2nc(-c3cccnc3C3CCCC3)oc2c1)N1CCN(c2nc3ccccc3c(=O)[nH]2)CC1 [Compound 21]
-59 | O=C(c1ccc2nc(-c3ccc(C4CCCC4)nc3)oc2c1)N1CCN(c2nc3ccccc3c(=O)[nH]2)CC1 [Compound 22]
8 | O=C(c1ccc2nc(-c3cccnc3C3CCCC3)oc2c1)N1CCN(c2nc3nc(Cl)ccc3o2)CC1 [Compound 24]
70 | O=C(c1ccc2nc(-c3cnccc3C3CCNCC3)oc2c1)N1CCN(c2nc3nc(Cl)ccc3o2)CC1.O=CO [Compound 25]
-40 | O=C(c1ccc2nc(-c3ccc(C4CCCC4)nc3)oc2c1)N1CC2(CC(n3cnc(C4CC4)n3)C2)C1 [Compound 30]
> 90 | O=C(c1ccc2nc(-c3cnccc3C3CCCC3)oc2c1)N1CC(N2CCN(C(=O)c3nccs3)CC2)C1 [Compound 31]

system: not listed separately; test: Parallel Artificial Membrane Permeability (PAMPA); details: PAMPA, pH 6

Structure (SMILES) | Papp at 18 h, 150 µM [×10⁻⁶ cm/s]
O=C(c1ccc2nc(-c3cccnc3C3CCCC3)oc2c1)N1CCN(c2nc3ccccc3c(=O)[nH]2)CC1 [Compound 21] | 3.7
O=C(c1ccc2nc(-c3ccc(C4CCCC4)nc3)oc2c1)N1CCN(c2nc3ccccc3c(=O)[nH]2)CC1 [Compound 22] | 2.7
O=C(c1ccc2nc(-c3cccnc3C3CCCC3)oc2c1)N1CCN(c2nc3nc(Cl)ccc3o2)CC1 [Compound 24] | 8.5
O=C(c1ccc2nc(-c3cnccc3C3CCNCC3)oc2c1)N1CCN(c2nc3nc(Cl)ccc3o2)CC1.O=CO [Compound 25] | 0.02
O=C(c1ccc2nc(-c3ccc(C4CCCC4)nc3)oc2c1)N1CC2(CC(n3cnc(C4CC4)n3)C2)C1 [Compound 30] | 4.4
O=C(c1ccc2nc(-c3cnccc3C3CCCC3)oc2c1)N1CC(N2CCN(C(=O)c3nccs3)CC2)C1 [Compound 31] | 12.1

same assay, conditions: donor buffer pH 6.0, 18-hour incubation

Structure (SMILES) | PAMPA permeability
O=C(c1ccc2nc(-c3cccnc3C3CCNCC3)oc2c1)N1CCN(c2nc3nc(Cl)ccc3o2)CC1.O=CO [Compound 26] | 0.01 10^-6 cm/s
O=C(c1ccc2nc(-c3cccnc3C3(C4CCC4)CC3)oc2c1)N1CCN(c2nc3nc(Cl)ccc3o2)CC1 [Compound 28] | 5.8 10^-6 cm/s

same assay, conditions: in words; SI2.2, Fig. S1 (PAMPA vs LipE)

Structure (SMILES) | cell permeability
O=C(c1ccc2nc(-c3cnccc3C3CCCC3)oc2c1)N1CC(N2CCN(C(=O)c3nccs3)CC2)C1 [Compound 31] | potent cell permeability

biological target: ABCB1 (MDR1, human P-gp) (Homo sapiens, UniProt P08183); test: P-glycoprotein (P-gp) assay in LLC-PK1 cells transfected with ABCB1; details: human, LLC-PK1
Sequence (P08183 whole entry): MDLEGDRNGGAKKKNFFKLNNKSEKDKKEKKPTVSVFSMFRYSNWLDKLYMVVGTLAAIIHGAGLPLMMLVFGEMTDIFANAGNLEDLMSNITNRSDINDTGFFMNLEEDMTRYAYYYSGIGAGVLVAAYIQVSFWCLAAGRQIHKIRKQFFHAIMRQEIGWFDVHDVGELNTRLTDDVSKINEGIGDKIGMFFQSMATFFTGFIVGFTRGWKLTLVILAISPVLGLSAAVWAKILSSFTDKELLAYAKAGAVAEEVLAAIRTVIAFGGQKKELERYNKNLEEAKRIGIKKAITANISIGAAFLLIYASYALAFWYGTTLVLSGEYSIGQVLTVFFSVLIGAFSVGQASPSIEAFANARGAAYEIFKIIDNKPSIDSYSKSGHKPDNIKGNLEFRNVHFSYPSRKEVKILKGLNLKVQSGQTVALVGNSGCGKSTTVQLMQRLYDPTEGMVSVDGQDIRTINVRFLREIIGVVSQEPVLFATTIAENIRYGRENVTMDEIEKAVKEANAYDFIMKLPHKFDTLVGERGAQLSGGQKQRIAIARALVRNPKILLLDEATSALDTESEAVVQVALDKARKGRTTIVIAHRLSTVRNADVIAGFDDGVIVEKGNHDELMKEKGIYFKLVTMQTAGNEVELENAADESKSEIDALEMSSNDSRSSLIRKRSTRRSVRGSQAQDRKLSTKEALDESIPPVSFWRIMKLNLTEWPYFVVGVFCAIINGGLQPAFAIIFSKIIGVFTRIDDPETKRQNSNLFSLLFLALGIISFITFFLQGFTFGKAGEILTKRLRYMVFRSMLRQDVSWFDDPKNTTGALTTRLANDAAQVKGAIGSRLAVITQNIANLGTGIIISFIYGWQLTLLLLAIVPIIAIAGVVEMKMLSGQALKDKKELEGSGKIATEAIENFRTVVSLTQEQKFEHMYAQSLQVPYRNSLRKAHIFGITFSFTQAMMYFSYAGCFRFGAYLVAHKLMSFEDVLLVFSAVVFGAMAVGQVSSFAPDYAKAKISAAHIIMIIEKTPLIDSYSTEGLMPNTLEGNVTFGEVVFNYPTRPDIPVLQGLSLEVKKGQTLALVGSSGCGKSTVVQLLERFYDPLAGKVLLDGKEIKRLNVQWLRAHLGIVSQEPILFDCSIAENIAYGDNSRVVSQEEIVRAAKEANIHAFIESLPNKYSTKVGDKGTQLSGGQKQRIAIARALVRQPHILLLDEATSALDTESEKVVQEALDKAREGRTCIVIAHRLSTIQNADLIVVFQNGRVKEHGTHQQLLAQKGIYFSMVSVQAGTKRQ

Structure (SMILES) | Papp A→B [×10⁻⁶ cm/s]
O=C(c1ccc2nc(-c3cccnc3C3CCCC3)oc2c1)N1CCN(c2nc3ccccc3c(=O)[nH]2)CC1 [Compound 21] | 10
O=C(c1ccc2nc(-c3ccc(C4CCCC4)nc3)oc2c1)N1CCN(c2nc3ccccc3c(=O)[nH]2)CC1 [Compound 22] | 8.1
O=C(c1ccc2nc(-c3cccnc3C3CCCC3)oc2c1)N1CCN(c2nc3nc(Cl)ccc3o2)CC1 [Compound 24] | 9.3
